The source of these data is patent US20240174696A1, “2,8-DIAZASPIRO[4.5]DECANE COMPOUNDS” (Genentech, Inc., priority 2021, published 2024).

Assay [1] concerns the target Human LATS2 catalytic domain (Homo sapiens (Human), UniProt Q9NRM7). Description: LATS2 High ATP HTRF Assay. The assay is classed as biochemical. The following applies: no asterisk: LATS2 High ATP HTRF Assay, 5000 μM ATP, 0.05 nM LATS2. In short, it runs like this:
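Phosphorylation of 0.5 μM STK S1 peptide at high ATP (5000 μM), 2 h at room temperature, by 0.05 nM LATS2 kinase domain/Mob1b complex after 10 min compound pre-incubation. Ki derived from HTRF-based IC50 (4-parameter logistic) by Cheng-Prusoff, ATP Km 105 μM.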

In assay [2] the test system is TAZ nuclear translocation in SW1990 cells. Description: TAZ Nuclear Translocation Assay. The assay is classed as cell-based. The following applies: Homo sapiens, 4 hours. The gist of the method: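 SW1990 cells in RPMI1640/10% FBS treated with compounds for 4 h at 37 °C, then fixed and immunostained for TAZ with Hoechst nuclear counterstain and imaged by high-content imaging. Read-out is the nuclear/cytoplasmic-ring fluorescence ratio, normalized to DMSO (0%) and an inhibitor control (100%); EC50 from four-parameter fit.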

Assay [3] has as its system pYAP(Ser127) in SW1990 cells. The assay can be described thus: pYAP(Ser127) HTRF Cellular Assay. The assay is classed as cell-based. The following applies: Homo sapiens, 4 hours. The protocol:
The SW1990 cells were seeded at 8000 cells/well by adding 30 μL/well of cells in RPMI1640, 10% FBS, 2 mM glutamine culture media to a 384-well plate (Corning 3570). The cells were incubated overnight at 37° C. Next day, compounds were directly added to the cells using the Echo Liquid Handler (Labcyte), incubate at 37° C. for 4 hours.
The HTRF assay was performed using the Cisbio phospho-YAP Ser127 HTRF kit (64YAPPEG). The media was aspirated from the cells. 20 μL of 1X lysis/blocking buffer was added to the cells, gently shake for 30 minutes at room temperature. 1 μL of the premixed antibody solution (1:40 dilution of each phospho-YAP Eu Cryptate antibody and phospho-YAP d2 antibody) was added to the cells. The plate was sealed and incubated overnight at room temperature. The HTRF (665 nm/620 nm) signal was read on the PHERAstar reader (BMG Labtech). The EC50 values were calculated by fitting the % inhibition with a nonlinear four-parameter logistical equation.

Where a name gives a salt, the structure may show the parent alone.

Human LATS2 catalytic domain, sequence (Q9NRM7 553-1088): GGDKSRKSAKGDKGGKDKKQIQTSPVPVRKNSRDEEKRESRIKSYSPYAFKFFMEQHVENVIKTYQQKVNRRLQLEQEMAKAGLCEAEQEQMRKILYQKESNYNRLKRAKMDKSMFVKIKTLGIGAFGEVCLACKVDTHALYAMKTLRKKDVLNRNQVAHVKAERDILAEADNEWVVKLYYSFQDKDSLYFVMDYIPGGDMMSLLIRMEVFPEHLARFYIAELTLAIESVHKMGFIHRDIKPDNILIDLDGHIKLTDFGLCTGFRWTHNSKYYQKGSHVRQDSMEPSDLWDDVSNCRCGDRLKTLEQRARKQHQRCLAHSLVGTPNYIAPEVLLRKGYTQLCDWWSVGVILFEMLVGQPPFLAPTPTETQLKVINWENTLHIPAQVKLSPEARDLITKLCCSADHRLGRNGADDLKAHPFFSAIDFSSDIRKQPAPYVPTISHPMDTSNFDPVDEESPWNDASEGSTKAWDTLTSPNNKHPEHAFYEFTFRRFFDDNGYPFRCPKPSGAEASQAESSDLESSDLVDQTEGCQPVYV
Human LATS2 catalytic domain, sequence (Q7L9L4 whole entry partner, the tested form may be a part): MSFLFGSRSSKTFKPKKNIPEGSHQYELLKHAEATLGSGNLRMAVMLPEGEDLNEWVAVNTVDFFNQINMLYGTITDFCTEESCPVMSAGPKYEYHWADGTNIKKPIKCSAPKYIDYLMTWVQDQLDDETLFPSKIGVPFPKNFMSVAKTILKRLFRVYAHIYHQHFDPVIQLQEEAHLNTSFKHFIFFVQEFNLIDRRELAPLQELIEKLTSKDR

Take `OC[C@@H]1CC2(CCN(c3nc(-c4ccncc4)nc4cnccc34)CC2)CN1` (single isomer, unassigned) [Compound 197]: the inhibition constant Ki in assay [1] was 0.059 nM. For the same molecule, the EC50 in assay [2] was determined as 1300 nM; in assay [3] it was 1400 nM.
The molecule `CC1CC2(CCN(c3nc(-c4ccncc4)nc4cnccc34)CC2)CN1` (stereo not drawn) [Compound 167, 4-(3-methyl-2,8-diazaspiro[4.5]decan-8-yl)-2-(pyridin-4-yl)pyrido[3,4-d]pyrimidine] gave an inhibition constant Ki in assay [1] of 0.58 nM. Besides, the results for the EC50 in assay [2] and in assay [3] were 540 nM and 300 nM, respectively.
Regarding `c1ccc(CN2CCC3(CCN(c4nc(-c5ccncc5)nc5cnccc45)CC3)C2)cc1` [Compound 133, 4-(2-benzyl-2,8-diazaspiro[4.5]decan-8-yl)-2-(pyridin-4-yl)pyrido[3,4-d]pyrimidine], the inhibition constant Ki in assay [1] is 0.069 nM. Also, the values for the half-maximal effective concentration (EC50) in assay [2] and in assay [3] were 400 nM and 250 nM, respectively.
As for `c1cc(-c2nc(N3CCC4(CC3)CCN(C3CCC3)C4)c3ccncc3n2)ccn1` [Compound 131, 4-(2-cyclobutyl-2,8-diazaspiro[4.5]decan-8-yl)-2-(pyridin-4-yl)pyrido[3,4-d]pyrimidine], in assay [1], the Ki is 0.29 nM. For the same molecule, the 50% effective concentration (EC50) in assay [2] was found to be 280 nM; in assay [3] it was 490 nM.
`OC1CC(N2CCC3(CCN(c4nc(-c5ccncc5)nc5cnccc45)CC3)C2)C1` (stereo not drawn) [Compound 108, 3-(8-(2-(pyridin-4-yl)pyrido[3,4-d]pyrimidin-4-yl)-2,8-diazaspiro[4.5]decan-2-yl)cyclobutanol]: the inhibition constant Ki in assay [1] amounted to 0.31 nM. Besides, the concentration for a half-maximal effect (EC50) in assay [2] was found to be 380 nM; in assay [3] it was 580 nM.
`CCN1CCC2(CCN(c3nc(-c4ccncc4)nc4cnccc34)CC2)C1` [Compound 138, 4-(2-ethyl-2,8-diazaspiro[4.5]decan-8-yl)-2-(pyridin-4-yl)pyrido[3,4-d]pyrimidine]: in assay [1], the affinity, expressed as Ki, was 0.61 nM. Besides, the EC50 in assay [2] came out at 590 nM; in assay [3], 890 nM.
Take `OCCCN1CCC2(CCN(c3nc(-c4ccncc4)nc4cnccc34)CC2)C1` [Compound 120, 3-(8-(2-(pyridin-4-yl)pyrido[3,4-d]pyrimidin-4-yl)-2,8-diazaspiro[4.5]decan-2-yl)propan-1-ol]: the Ki in assay [1] was determined as 0.17 nM. Also, the EC50 in assay [2] was 370 nM; in assay [3], 360 nM.
With `c1cc(-c2nc(N3CCC4(CC3)CCN(C3CCCC3)C4)c3ccncc3n2)ccn1` [Compound 106, 4-(2-cyclopentyl-2,8-diazaspiro[4.5]decan-8-yl)-2-(pyridin-4-yl)pyrido[3,4-d]pyrimidine formate], the affinity in assay [1] corresponds to a Ki of 0.053 nM. Further, the EC50 was determined as 300 nM in assay [2] and 230 nM in assay [3].
In the case of `CC(C)(CO)N1CCC2(CCN(c3nc(-c4ccncc4)nc4cnccc34)CC2)C1` [Compound 107, 2-methyl-2-(8-(2-(pyridin-4-yl)pyrido[3,4-d]pyrimidin-4-yl)-2,8-diazaspiro[4.5]decan-2-yl)propan-1-ol], affinity in assay [1] was put at a Ki of 0.62 nM. Also, the figures for the EC50 in assay [2] and in assay [3] were 420 nM and 290 nM, respectively.
The matching figures for `c1cc(-c2nc(N3CCC4(CC3)CCN([C@@H]3CCOC3)C4)c3ccncc3n2)ccn1` (single isomer, unassigned) [Compound 112]: 1.07 nM, 700 nM and 940 nM.
The molecule `COCCN1CCC2(CCN(c3nc(-c4ccncc4)nc4cnccc34)CC2)C1` [Compound 121, 4-(2-(2-methoxyethyl)-2,8-diazaspiro[4.5]decan-8-yl)-2-(pyridin-4-yl)pyrido[3,4-d]pyrimidine] returned an inhibitory constant (Ki) in assay [1] of 0.8 nM. Also, the half-maximal effective concentration (EC50) in assay [2] worked out at 300 nM; in assay [3] it was 630 nM.
For the molecule `c1cc(-c2nc(N3CCC4(CC3)CCN([C@H]3CCOC3)C4)c3ccncc3n2)ccn1` (single isomer, unassigned) [Compound 113], the inhibition constant (Ki) in assay [1] stood at 0.82 nM. In addition, the half-maximal effective concentration (EC50) worked out at 660 nM in assay [2] and 1100 nM in assay [3].
The matching figures for `FC(F)CN1CCC2(CCN(c3nc(-c4ccncc4)nc4cnccc34)CC2)C1` [Compound 127, 4-(2-(2,2-difluoroethyl)-2,8-diazaspiro[4.5]decan-8-yl)-2-(pyridin-4-yl)pyrido[3,4-d]pyrimidine]: 0.55 nM, 1300 nM and 3400 nM.
In turn, `Cc1n[nH]cc1-c1nc(N2CCC3(CCN(C)C3)CC2)c2ccncc2n1` [Compound 143, 2-(3-methyl-1H-pyrazol-4-yl)-4-(2-methyl-2,8-diazaspiro[4.5]decan-8-yl)pyrido[3,4-d]pyrimidine] displayed a Ki in assay [1] of 0.15 nM. The half-maximal effective concentration (EC50) in assay [2] was 700 nM; in assay [3], 1000 nM.
In turn, `FCOc1cncc2nc(-c3ccncc3)nc(N3CCC4(CCNC4)CC3)c12` [Compound 267, 5-(fluoromethoxy)-2-(pyridin-4-yl)-4-(2,8-diazaspiro[4.5]decan-8-yl)pyrido[3,4-d]pyrimidine] returned an inhibitory constant (Ki) in assay [1] of 0.028 nM. The EC50 in assay [2] amounted to 360 nM.
Regarding `FCC1CC2(CCN(c3nc(-c4ccncc4)nc4cnccc34)CC2)CN1` (racemic) [Example 216, 4-(3-(fluoromethyl)-2,8-diazaspiro[4.5]decan-8-yl)-2-(pyridin-4-yl)pyrido[3,4-d]pyrimidine], affinity in assay [1] was put at a Ki of 0.13 nM. This molecule also gave a 50% effective concentration (EC50) in assay [2] of 490 nM.
The corresponding values for `CN1CCC2(CCN(c3nc(-c4ccncc4)nc4cncc(O)c34)CC2)C1` [Compound 259, 4-(2-methyl-2,8-diazaspiro[4.5]decan-8-yl)-2-(pyridin-4-yl)pyrido[3,4-d]pyrimidin-5-ol] are 1.6 nM and greater than 10000 nM.
`COc1[nH]ncc1-c1nc(N2CCC3(CCNC3)CC2)c2ccncc2n1` [Compound 257, 2-(5-methoxy-1H-pyrazol-4-yl)-4-(2,8-diazaspiro[4.5]decan-8-yl)pyrido[3,4-d]pyrimidine]: the Ki in assay [1] turned out to be 8 nM. Further, the EC50 in assay [2] was greater than 10000 nM.
In assay [1], `c1cc(-c2cc3cnccc3c(N3CCC4(CCNC4)CC3)n2)ccn1` [Example 199, 3-(Pyridin-4-yl)-1-(2,8-diazaspiro[4.5]decan-8-yl)-2,6-naphthyridine] returned a Ki of 3.3 nM. Further, the concentration giving a half-maximal response (EC50) in assay [2] stood at 6100 nM.
Take `OC[C@H]1CC2(CCN(c3nc(-c4ccncc4)nc4cnccc34)CC2)CN1` (single isomer, unassigned) [Compound 198]: the affinity in assay [1], expressed as Ki, was 0.041 nM. In addition, the figures for the EC50 in assay [2] and in assay [3] were 1400 nM and 2400 nM, respectively.
On to `c1cc(-c2nc(N3CCC4(CCNC4)CC3)c3c(OC4COC4)cncc3n2)ccn1` [Compound 260, 5-(Oxetan-3-yloxy)-2-(pyridin-4-yl)-4-(2,8-diazaspiro[4.5]decan-8-yl)pyrido[3,4-d]pyrimidine], for which the affinity in assay [1] corresponds to a Ki of 0.055 nM. For the same molecule, a half-maximal effect in assay [2] (EC50) was put at 4000 nM.
Regarding `OCCN1CCC2(CCN(c3nc(-c4ccncc4)nc4cnccc34)CC2)C1` [Compound 114, 2-(8-(2-(pyridin-4-yl)pyrido[3,4-d]pyrimidin-4-yl)-2,8-diazaspiro[4.5]decan-2-yl)ethanol], the Ki in assay [1] was 0.31 nM. Also, the EC50 amounted to 610 nM in assay [2] and 550 nM in assay [3].
With `FCCCN1CCC2(CCN(c3nc(-c4ccncc4)nc4cnccc34)CC2)C1` [Compound 135, 4-(2-(3-fluoropropyl)-2,8-diazaspiro[4.5]decan-8-yl)-2-(pyridin-4-yl)pyrido[3,4-d]pyrimidine], the affinity in assay [1], expressed as Ki, was 0.063 nM. Besides, the EC50 in assay [2] came out at 420 nM.
With `O[C@@H]1COC[C@H]1N1CCC2(CCN(c3nc(-c4ccncc4)nc4cnccc34)CC2)C1` (single isomer, unassigned) [Compound 176], in assay [1], the inhibition constant (Ki) is 0.93 nM. The EC50 in assay [2] came out at 1790 nM.
`Cc1[nH]ncc1-c1nc(N2CCC3(CCNC3)CC2)c2c(F)cncc2n1` [Compound 186, 5-fluoro-2-(5-methyl-1H-pyrazol-4-yl)-4-(2,8-diazaspiro[4.5]decan-8-yl)pyrido[3,4-d]pyrimidine]: the affinity in assay [1], expressed as Ki, was 2.26 nM. Also, the EC50 in assay [2] is greater than 10000 nM.
As to `OC1(CN2CCC3(CCN(c4nc(-c5ccncc5)nc5cnccc45)CC3)C2)CCC1` [Example 205, 1-((8-(2-(Pyridin-4-yl)pyrido[3,4-d]pyrimidin-4-yl)-2,8-diazaspiro[4.5]decan-2-yl)methyl)cyclobutan-1-ol], the affinity in assay [1] corresponds to a Ki of 0.23 nM. For the same molecule, the EC50 in assay [2] was 170 nM.
`Cc1[nH]ncc1-c1nc(N2CCC3(CC2)CCN([C@H]2CC[C@@H]2O)C3)c2ccncc2n1` (single isomer, unassigned) [Example 229] gave a Ki in assay [1] of 0.063 nM. The same molecule displayed an EC50 in assay [2] of 2100 nM.
As for `CN1CCC2(CCN(c3nc(-c4ccncc4)nc4cncc(OC5CC(C#N)C5)c34)CC2)C1` (stereo not drawn) [Compound 277, 3-((4-(2-Methyl-2,8-diazaspiro[4.5]decan-8-yl)-2-(pyridin-4-yl)pyrido[3,4-d]pyrimidin-5-yl)oxy)cyclobutane-1-carbonitrile], in assay [1], the Ki came out at 0.11 nM. Besides, in assay [2], it took 290 nM to reach a half-maximal effect (EC50).
